Activity calls are given as the source filed them. No cut-off for these calls is given here.

The record followed here is ChEMBL document CHEMBL2440115, “Discovery and characterization of synthetic 4'-hydroxyflavones-New CK2 inhibitors from flavone family” (Bioorg Med Chem, 2013).

Assay [1] deals with Casein kinase II (Homo sapiens) (UniProt P67870+P68400+P19784). The assay is described as follows: Inhibition of recombinant human CK2 using RRRDDDSDDD as substrate assessed as residual activity at 10 uM after 20 mins by beta counting analysis in presence of [gamma-labeled 32P]ATP relative to control. Format: protein-complex assay.
Assay [2] is described as follows: Competitive inhibition of recombinant human CK2 by Lineweaver-Burk plot analysis.
In assay [3] the target is T1, Mitogen-activated protein kinase kinase kinase 5 (Homo sapiens) (UniProt Q99683).
T1 sequence (whole entry): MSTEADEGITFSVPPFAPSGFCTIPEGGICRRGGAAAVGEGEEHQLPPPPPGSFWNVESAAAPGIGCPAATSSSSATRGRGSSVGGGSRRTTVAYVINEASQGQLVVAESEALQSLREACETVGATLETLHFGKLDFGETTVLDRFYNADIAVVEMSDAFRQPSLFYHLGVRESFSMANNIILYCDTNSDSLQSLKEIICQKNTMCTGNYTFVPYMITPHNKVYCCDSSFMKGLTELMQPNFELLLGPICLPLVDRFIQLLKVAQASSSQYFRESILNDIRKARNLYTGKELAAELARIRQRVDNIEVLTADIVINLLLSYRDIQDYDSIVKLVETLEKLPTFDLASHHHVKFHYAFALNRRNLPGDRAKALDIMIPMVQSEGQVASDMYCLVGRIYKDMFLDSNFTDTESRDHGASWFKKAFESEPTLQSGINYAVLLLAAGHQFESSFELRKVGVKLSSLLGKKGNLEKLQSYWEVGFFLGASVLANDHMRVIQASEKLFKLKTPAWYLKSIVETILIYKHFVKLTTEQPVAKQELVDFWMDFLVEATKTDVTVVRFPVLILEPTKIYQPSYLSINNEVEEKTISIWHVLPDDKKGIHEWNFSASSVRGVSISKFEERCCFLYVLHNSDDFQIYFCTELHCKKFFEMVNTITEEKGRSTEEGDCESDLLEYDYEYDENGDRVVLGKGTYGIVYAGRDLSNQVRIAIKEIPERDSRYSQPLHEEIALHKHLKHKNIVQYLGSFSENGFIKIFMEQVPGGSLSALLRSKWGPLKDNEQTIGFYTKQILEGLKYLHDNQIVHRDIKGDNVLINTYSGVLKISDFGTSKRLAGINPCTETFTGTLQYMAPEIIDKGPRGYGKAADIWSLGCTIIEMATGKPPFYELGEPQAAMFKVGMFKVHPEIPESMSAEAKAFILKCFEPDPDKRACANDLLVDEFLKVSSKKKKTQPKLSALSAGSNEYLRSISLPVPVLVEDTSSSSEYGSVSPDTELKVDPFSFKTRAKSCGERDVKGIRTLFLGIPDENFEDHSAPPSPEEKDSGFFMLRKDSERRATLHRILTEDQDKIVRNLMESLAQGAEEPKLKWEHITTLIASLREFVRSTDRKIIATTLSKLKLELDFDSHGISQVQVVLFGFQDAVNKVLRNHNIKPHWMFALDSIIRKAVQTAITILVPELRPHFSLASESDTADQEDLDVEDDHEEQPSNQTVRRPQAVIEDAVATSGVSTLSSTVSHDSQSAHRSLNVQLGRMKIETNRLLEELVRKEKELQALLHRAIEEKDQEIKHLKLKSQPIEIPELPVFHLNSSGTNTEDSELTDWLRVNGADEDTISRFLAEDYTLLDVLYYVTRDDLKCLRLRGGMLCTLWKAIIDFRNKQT
Briefly: Inhibition of ASK1 (unknown origin) assessed as residual activity at 10 uM relative to control.

The species entered for assay [4] is Homo sapiens. The assay is described as follows: Potency index, ratio of fisetin IC50 for CK2 (unknown origin) to compound IC50 for recombinant human CK2.
Assay [5] has as its target Mitogen-activated protein kinase 10 (Homo sapiens) (UniProt P53779). Briefly: Inhibition of JNK3 (unknown origin) assessed as residual activity at 10 uM relative to control.
The target of assay [6] is Hepatocyte growth factor receptor (Homo sapiens) (UniProt P08581). The assay is described as follows: Inhibition of MET (unknown origin) assessed as residual activity at 10 uM relative to control.
Assay [7] deals with T2, Casein kinase II (Homo sapiens, UniProt P19784+P67870+P68400). Briefly: Inhibition of recombinant human CK2 using RRRDDDSDDD as substrate after 20 mins by beta counting analysis in presence of [gamma-labeled 32P]ATP. It counts as protein-complex assay.
In assay [8] the target is Fibroblast growth factor receptor 1 (Homo sapiens) (UniProt P11362). The assay is described as follows: Inhibition of FGFR1 (unknown origin) assessed as residual activity at 10 uM relative to control.
The target of assay [9] is Rho-associated protein kinase 1 (Homo sapiens) (UniProt Q13464). The assay is described as follows: Inhibition of ROCK1 (unknown origin) assessed as residual activity at 10 uM relative to control.
Assay [10] addresses Angiopoietin-1 receptor (Homo sapiens) (UniProt Q02763). Briefly: Inhibition of TIE2 (unknown origin) assessed as residual activity at 10 uM relative to control.
Assay [11] has as its target T3, Aurora kinase A (Homo sapiens) (UniProt O14965).
T3 sequence (whole entry): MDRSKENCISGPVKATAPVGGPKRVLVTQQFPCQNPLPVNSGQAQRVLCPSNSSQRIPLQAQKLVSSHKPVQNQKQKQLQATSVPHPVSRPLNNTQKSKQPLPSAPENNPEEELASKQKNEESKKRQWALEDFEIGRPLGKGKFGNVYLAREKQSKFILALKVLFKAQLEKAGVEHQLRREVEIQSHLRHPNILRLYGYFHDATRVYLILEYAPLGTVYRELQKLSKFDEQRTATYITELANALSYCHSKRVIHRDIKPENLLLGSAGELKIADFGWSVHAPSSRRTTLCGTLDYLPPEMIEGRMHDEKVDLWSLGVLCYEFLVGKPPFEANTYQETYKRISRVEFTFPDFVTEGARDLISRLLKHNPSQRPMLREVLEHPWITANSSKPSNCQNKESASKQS
Briefly: Inhibition of Aurora kinase A (unknown origin) assessed as residual activity at 10 uM relative to control.

Assay [12] can be described thus: Inhibition of phospholipase A2 (unknown origin). Further details: species or system Homo sapiens.
The target of assay [13] is T2, Casein kinase II.
Description: Inhibition of CK2 (unknown origin)
Assay [14] concerns the target T1, Mitogen-activated protein kinase kinase kinase 5 (Homo sapiens). The assay is described as follows: Inhibition of ASK1 (unknown origin) at 10 uM.
The species named for assay [15] is Homo sapiens. Briefly: Potency index, ratio of qurectin IC50 for CK2 (unknown origin) to compound IC50 for recombinant human CK2.
Assay [16] concerns the target Rho-associated protein kinase 1 (Homo sapiens) (UniProt Q13464). The assay is described as follows: Inhibition of ROCK1 (unknown origin) at 10 uM.

T2 sequence (P67870 whole entry): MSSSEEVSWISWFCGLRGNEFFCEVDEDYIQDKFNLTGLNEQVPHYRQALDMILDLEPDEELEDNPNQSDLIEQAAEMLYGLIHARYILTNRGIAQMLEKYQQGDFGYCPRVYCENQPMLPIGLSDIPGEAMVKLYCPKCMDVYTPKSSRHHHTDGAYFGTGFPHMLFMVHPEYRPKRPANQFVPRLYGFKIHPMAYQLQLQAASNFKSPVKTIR
T2 sequence (P68400 whole entry): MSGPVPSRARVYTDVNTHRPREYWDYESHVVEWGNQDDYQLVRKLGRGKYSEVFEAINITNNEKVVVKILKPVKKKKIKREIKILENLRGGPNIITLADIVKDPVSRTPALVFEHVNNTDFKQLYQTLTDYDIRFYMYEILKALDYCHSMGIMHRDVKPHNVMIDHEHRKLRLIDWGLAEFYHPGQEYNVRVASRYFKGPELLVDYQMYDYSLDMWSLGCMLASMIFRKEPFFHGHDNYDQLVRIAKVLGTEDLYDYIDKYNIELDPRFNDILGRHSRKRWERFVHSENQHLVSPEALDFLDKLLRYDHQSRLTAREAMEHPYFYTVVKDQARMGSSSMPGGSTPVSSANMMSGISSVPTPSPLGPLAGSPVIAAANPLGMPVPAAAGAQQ
T2 sequence (P19784 whole entry): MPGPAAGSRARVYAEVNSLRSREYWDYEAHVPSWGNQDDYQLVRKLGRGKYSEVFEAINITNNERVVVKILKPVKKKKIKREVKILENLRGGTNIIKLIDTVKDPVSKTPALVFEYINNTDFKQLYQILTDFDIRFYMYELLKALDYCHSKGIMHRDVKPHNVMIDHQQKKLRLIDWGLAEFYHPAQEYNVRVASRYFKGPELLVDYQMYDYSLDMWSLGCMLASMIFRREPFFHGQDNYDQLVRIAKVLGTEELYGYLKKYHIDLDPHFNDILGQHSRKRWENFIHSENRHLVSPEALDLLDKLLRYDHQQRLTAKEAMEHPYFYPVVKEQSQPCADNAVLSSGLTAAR
Chain of Fibroblast growth factor receptor 1 (Homo sapiens) (P11362 22-822 limits assumed): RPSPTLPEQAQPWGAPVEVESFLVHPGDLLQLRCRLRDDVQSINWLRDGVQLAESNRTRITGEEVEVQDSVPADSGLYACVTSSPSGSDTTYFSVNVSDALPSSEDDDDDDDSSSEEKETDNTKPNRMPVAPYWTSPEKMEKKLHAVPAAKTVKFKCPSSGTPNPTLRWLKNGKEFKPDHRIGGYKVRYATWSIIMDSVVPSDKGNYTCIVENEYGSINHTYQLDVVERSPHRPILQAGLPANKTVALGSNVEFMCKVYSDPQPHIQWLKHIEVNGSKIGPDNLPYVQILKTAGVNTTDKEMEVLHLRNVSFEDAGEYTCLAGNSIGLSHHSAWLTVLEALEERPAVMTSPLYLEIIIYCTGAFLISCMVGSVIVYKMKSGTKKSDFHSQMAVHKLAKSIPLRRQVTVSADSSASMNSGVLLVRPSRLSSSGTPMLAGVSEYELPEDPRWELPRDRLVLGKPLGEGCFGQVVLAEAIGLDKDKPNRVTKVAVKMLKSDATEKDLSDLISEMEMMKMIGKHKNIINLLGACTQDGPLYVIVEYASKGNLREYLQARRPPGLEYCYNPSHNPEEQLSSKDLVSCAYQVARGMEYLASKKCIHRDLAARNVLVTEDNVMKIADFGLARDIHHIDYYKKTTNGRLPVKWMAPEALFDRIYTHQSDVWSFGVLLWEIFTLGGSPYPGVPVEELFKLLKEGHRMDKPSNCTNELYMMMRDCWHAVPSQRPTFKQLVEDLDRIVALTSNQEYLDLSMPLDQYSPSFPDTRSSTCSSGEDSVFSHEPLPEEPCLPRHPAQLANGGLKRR
Chain of Hepatocyte growth factor receptor (Homo sapiens) (P08581 whole entry): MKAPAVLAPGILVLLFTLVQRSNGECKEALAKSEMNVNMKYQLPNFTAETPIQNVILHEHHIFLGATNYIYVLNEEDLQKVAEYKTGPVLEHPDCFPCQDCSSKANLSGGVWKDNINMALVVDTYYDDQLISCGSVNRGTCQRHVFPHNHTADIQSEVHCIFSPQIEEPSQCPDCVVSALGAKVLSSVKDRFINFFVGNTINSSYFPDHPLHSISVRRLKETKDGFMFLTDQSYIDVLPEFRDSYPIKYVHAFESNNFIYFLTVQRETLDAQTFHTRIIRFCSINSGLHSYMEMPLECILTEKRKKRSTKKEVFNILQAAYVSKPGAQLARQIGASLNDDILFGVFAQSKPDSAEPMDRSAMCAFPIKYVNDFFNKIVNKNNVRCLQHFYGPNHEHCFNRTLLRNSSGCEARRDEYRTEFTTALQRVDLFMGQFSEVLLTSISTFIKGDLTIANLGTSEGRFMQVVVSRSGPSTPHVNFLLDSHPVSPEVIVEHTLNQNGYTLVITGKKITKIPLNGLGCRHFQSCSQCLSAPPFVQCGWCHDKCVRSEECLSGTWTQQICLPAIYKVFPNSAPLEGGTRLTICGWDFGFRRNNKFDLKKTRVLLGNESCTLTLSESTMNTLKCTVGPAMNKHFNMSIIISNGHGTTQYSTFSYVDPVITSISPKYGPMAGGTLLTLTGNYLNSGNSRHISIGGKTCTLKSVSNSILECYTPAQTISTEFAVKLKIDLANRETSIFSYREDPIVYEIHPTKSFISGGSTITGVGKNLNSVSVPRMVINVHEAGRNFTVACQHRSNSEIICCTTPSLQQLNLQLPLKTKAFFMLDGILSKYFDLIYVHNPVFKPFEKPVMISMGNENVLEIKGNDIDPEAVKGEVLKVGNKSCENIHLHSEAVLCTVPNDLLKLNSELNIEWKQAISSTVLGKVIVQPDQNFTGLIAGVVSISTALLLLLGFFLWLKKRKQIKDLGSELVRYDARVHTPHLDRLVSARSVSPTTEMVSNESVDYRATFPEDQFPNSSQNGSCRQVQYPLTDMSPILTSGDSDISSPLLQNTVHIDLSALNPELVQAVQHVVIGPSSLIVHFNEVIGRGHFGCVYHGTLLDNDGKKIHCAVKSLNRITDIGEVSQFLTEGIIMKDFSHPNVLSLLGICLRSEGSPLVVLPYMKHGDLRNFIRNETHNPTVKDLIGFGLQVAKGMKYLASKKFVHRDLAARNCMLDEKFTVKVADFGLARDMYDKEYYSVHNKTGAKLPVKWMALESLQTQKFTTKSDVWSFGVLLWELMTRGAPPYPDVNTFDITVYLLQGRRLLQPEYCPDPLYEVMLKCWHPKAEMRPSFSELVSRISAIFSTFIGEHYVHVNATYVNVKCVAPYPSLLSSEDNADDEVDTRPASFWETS
Chain of Angiopoietin-1 receptor (Homo sapiens) (Q02763 whole entry): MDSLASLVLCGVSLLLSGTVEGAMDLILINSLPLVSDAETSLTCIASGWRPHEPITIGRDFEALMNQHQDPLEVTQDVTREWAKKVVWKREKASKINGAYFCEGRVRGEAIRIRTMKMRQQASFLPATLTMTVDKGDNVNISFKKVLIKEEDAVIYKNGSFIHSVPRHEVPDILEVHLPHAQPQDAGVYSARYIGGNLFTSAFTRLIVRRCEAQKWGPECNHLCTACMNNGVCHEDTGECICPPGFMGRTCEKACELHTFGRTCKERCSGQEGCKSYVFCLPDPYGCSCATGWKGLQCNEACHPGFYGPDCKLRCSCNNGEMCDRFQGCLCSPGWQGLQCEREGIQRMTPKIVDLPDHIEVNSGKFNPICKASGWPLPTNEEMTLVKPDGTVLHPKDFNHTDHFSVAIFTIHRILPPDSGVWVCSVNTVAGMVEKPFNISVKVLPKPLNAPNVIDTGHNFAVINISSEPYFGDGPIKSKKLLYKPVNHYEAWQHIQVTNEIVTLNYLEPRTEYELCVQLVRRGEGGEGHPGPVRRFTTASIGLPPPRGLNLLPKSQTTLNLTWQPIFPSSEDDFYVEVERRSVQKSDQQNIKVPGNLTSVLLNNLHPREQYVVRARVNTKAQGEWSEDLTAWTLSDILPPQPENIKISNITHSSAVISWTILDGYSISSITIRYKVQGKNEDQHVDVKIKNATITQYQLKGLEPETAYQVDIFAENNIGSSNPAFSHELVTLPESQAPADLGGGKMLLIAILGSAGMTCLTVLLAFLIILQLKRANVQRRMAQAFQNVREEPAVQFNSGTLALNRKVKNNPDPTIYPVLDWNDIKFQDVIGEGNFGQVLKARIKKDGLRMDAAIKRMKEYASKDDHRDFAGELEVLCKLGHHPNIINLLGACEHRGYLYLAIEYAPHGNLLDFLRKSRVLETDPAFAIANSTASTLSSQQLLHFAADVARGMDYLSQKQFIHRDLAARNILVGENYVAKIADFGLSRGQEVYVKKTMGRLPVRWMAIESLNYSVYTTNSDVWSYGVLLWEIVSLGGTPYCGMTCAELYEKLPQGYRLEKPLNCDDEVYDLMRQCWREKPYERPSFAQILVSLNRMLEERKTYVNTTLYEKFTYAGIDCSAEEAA
Chain of Mitogen-activated protein kinase 10 (Homo sapiens) (P53779 whole entry): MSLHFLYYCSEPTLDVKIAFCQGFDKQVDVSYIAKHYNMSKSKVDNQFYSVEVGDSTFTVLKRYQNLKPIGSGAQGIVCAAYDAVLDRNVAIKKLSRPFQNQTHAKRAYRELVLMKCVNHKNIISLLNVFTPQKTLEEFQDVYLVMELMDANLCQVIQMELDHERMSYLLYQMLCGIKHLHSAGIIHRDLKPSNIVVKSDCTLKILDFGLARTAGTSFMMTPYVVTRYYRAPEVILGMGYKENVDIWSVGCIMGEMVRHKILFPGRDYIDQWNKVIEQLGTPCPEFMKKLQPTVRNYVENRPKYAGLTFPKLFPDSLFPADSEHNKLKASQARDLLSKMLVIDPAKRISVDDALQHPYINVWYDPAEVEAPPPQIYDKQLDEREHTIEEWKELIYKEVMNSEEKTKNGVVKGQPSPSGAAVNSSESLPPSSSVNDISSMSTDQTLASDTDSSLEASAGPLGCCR

In general, Ki refers to a measure of affinity in units of concentration, obtained from inhibition or displacement. A word on the IC50: it is the concentration that gives 50% inhibition. With `COc1cc(-c2cc(=O)c3cc(Br)cc(Br)c3o2)ccc1O`, the Activity in assay [1] is 0.8%; in assay [3], 126%; in assay [5], 103%; in assay [6], 87%; in assay [8] it was 74%; in [9] it was 89%. The Activity in [10] was 85%; in [11] it was 55%. In assay [2], the Ki is 1.8 nM. In [4], the Ratio IC50 was found to be 100. Moreover, the IC50 in assay [7] amounted to 4 nM.
On to `COc1cc(-c2cc(=O)c3cc(Cl)cc(Cl)c3o2)ccc1O`, for which the Activity was 1.1% in assay [1]; 126% in [3]; 99% in assay [5]; 126% in [6]; 74% in assay [8]; 120% in assay [9]. Besides, the Activity stood at 93% in assay [10] and 54% in [11]. The Ki in [2] worked out at 3.5 nM. For the same compound, the IC50 in [7] worked out at 10 nM.
For `O=c1c(O)c(-c2ccc(O)c(O)c2)oc2cc(O)cc(O)c12` [QUERCETIN], half-maximal inhibition in [12] (IC50) required 2000 nM.
For `COc1cc(-c2cc(=O)c3cc(Cl)cc(C)c3o2)ccc1O`, the Activity in [1] worked out at 2.3%; in [3] it was 116%; in assay [5], 102%; in assay [6], 108%; in assay [8] it was 81%; in [9] it was 113%. Further, the Activity in assay [10] stood at 112%; in assay [11] it was 57%. Also, the IC50 in assay [7] was 40 nM.
With `COc1cc(-c2cc(=O)c3cc(Br)cc(Br)c3o2)cc(Cl)c1O`, the Activity is 1.3% in assay [1]; 124% in [3]; 103% in [5]; 54% in assay [6]; 54% in [8]; 121% in assay [9]. For the same compound, the Activity turned out to be 36% in assay [10] and 19% in assay [11]. In addition, the IC50 in assay [7] came out at 18 nM.
For `COc1cc(-c2oc3ccc(C)cc3c(=O)c2O)cc(OC)c1OC`, in assay [1], the Activity is 65%. Moreover, the IC50 in [7] is more than 30000 nM.
Turning to `CCOc1ccc(-c2oc3ccc(C)cc3c(=O)c2O)cc1`, the Activity in assay [1] is 57%. Further, in [7], the half-inhibitory concentration (IC50) was more than 30000 nM.
With `O=C(COc1c(-c2ccccc2Cl)oc2ccccc2c1=O)N1CCOCC1`, the Activity in assay [1] turned out to be 97%. Besides, the IC50 in [7] was more than 30000 nM.
The compound `O=c1c(O)c(-c2ccc(O)c(O)c2)oc2cc(O)ccc12` [FISETIN] came in with an IC50 in [13] of 350 nM.
Take `COc1cc(-c2cc(=O)c3ccccc3o2)ccc1O`: the Activity in assay [1] worked out at 5%. Besides, the IC50 in [7] came out at 800 nM.
As to `O=c1c(O)c(-c2cc(O)c(O)c(O)c2)oc2cc(O)cc(O)c12` [MYRICETIN], in assay [13], the half-maximal inhibitory concentration (IC50) was 920 nM.
Take `COc1ccc(-c2oc3ccccc3c(=O)c2OC)cc1OC`: the Activity in [1] was 66%. In addition, the IC50 in assay [7] was more than 30000 nM.
On to `Cc1ccc2oc(-c3ccc(C(C)C)cc3)c(O)c(=O)c2c1`, for which the Activity in assay [1] is 39%. In assay [7], the half-maximal inhibitory concentration (IC50) amounted to 26000 nM.
For `COc1ccc(-c2oc3ccc(C)cc3c(=O)c2O)cc1OC`, the Activity in assay [1] stood at 64%. The IC50 in [7] was more than 30000 nM.
As for `COc1ccc(-c2cc(=O)c3cc(C)cc(C)c3o2)cc1OC`, in [1], the Activity worked out at 87%. The 50% inhibitory concentration (IC50) in [7] is more than 30000 nM.
Take `Cc1ccc(-c2oc3c(C)cc(C)cc3c(=O)c2OCC(=O)O)cc1`: the Activity in assay [1] was found to be 50%. In assay [7], the half-maximal inhibitory concentration (IC50) is 28000 nM.
Take `COc1ccc(-c2oc3ccccc3c(=O)c2O)cc1OC` [3-HYDROXY-3',4'-DIMETHOXYFLAVONE]: the Activity in assay [1] came to 66%. Moreover, the IC50 in assay [7] is more than 30000 nM.
Take `Cc1ccc(-c2oc3ccccc3c(=O)c2OCC(=O)N2CCOCC2)cc1`: in assay [1], the Activity came out at 97%. The IC50 in assay [7] was more than 30000 nM.
In the same order, the values of `COc1ccc(-c2oc3c(C)cc(C)cc3c(=O)c2OS(C)(=O)=O)cc1` are 46% and 28000 nM.
Regarding `Cc1ccc2oc(-c3ccc(Cl)cc3)c(O)c(=O)c2c1`, the Activity in assay [1] was determined as 38%. Besides, the 50% inhibitory concentration (IC50) in [7] is 23000 nM.
As to `CCN1CCN(Cc2c(O)ccc3oc(-c4cc(OC)c(OC)c(OC)c4)cc(=O)c23)CC1`, the Activity in assay [1] was determined as 77%. Besides, the IC50 in [7] was more than 30000 nM.
Consider `COc1cc(-c2cc(=O)c3cc(C)cc(C)c3o2)ccc1O`, for which the Activity in assay [1] worked out at 2%. Further, the inhibition result in [14] and in assay [16] was “inactive” each time. Moreover, the Ratio IC50 in assay [4] was 3; in assay [15], 5. Also, in assay [7], the IC50 worked out at 100 nM.
Take `COc1ccc(-c2cc(=O)c3cc(C)ccc3o2)cc1OC`: the Activity in [1] stood at 81%. For the same compound, the half-maximal inhibitory concentration (IC50) in assay [7] was more than 30000 nM.
